What was measured:
[1] = test system: CHP-212 neuroblastoma cell line; assay: MBZ cell viability IC50 (CellTiter Glo); type: cell-based; conditions: Homo sapiens, 72 hours
Description: (§1) The effect of mebendazole administration on cell lines derived from exemplary cancers was tested. One approach to determining the effectiveness of mebendazole in the treatment of cancer comprises in vitro testing. In this approach, cancer cell lines representative of the cancers of the disclosure are cultured in vitro according to standard techniques (see, for example, Human Cell Culture Protocols, Third Edition, […] R. D. Hughes, Editors, Humana Press, 2012), and increasing concentrations of mebendazole are administered to determine the IC50 value. As used herein, the term “IC50 value” refers to the concentration of a compound (for example mebendazole) wherein the response to that compound (such as inhibited cellular viability) is reduced by half. The IC50 is thus a measure of the effectiveness of a compound in inhibiting a biological process. […] Based on this biology, several rare cancer tumor cell lines including neuroblastoma, rhabdomyosarcoma and Ewing sarcoma were analyzed for sensitivity to MBZ treatment in vitro. […] In all cases, including those described below, the viable cells were determined using the CellTiter Glo® kit and an IC50 curve was generated using the PRISM software. […] The neuroblastoma cell lines IMR-32, CHP-212, and SK-N-AS were treated with ten serial dilutions of mebendazole for 72 hours.

[2] = test system: IMR-32 neuroblastoma cell line; assay: MBZ cell viability IC50 (CellTiter Glo); type: cell-based; conditions: Homo sapiens, 72 hours
Description: as §1

[3] = test system: SK-N-AS neuroblastoma cell line; assay: MBZ cell viability IC50 (CellTiter Glo); type: cell-based; conditions: Homo sapiens, 72 hours
Description: as §1

[4] = Tolerability of daily oral MBZ dosing in ACC PDX mice; type: in vivo; conditions: athymic nude mice with ACC PDX tumors; 50 or 200 mg/kg daily
Description: Despite a deepening understanding of the molecular events that lead to sustained tumor growth, there are currently no approved therapies for ACC. Identification of therapies for ACC has been hampered by the lack of ACC cell lines and transgenic mouse models. To circumvent these issues, the activity of MBZ was tested in several ACC patient-derived xenograft (PDX) models. Athymic nude mice were implanted subcutaneously with PDX tumors and treatment was initiated when tumors reached a size of 125-300 mm^3. Mice were randomized into three treatment groups to receive daily treatment with vehicle or MBZ at either 50 or 200 mg/kg for the duration of the study. Tumor size was measured twice weekly.

[5] = test system: CHP-212 neuroblastoma cells; assay: Synergy of MBZ or HA-PLGA-MBZ with chemotherapeutic agents (Chou-Talalay CI, Cell Titer Glo); type: cell-based; conditions: CHP-212 + 4-HC
Description: For in vitro experiments, cells were plated in triplicate and treated with a range of concentrations of MBZ and relevant chemotherapeutic agents in a complete Latin square.
Cells were plated in triplicate and treated with a range of 5 concentrations of MBZ in combination with 5 concentrations of chemotherapeutic agents in a complete Latin square. Following a 72 hour incubation, cell viability was determined using Cell Titer Glo.
In table 22 below, cells were plated in triplicate and treated with a range of 5 concentrations of MBZ or HA-PLGA-MBZ nanoparticles containing a molar equivalent of MBZ, and 5 concentrations of relevant chemotherapeutic agents in a complete Latin square. Combination indexes (CI) were determined based on the method described by Chou-Talalay with a CI value less than 0.9 indicating synergy. […] Numbers in parentheses represent the range of synergistic CI values for each cell line and drug combination.

## COC(=O)Nc1nc2ccc(C(=O)c3ccccc3)cc2[nH]1 [MBZ, methyl N-(6-benzoyl-1H-benzimidazol-2-yl)carbamate]
[1]
  IC50: 0.13 µM
[2]
  IC50: 0.05 µM
[3]
  IC50: 0.68 µM
[4]
  tolerability of daily oral dosing: well tolerated with no overt toxicities
[5]
  range of synergistic CI values: 0.569-0.860

Source: patent US20190175560A1, “MEBENDAZOLE CANCER THERAPIES AND METHODS OF USE” (Shepherd Therapeutics, Inc., priority 2017, published 2019)
